# Source: patent US9594084B2, “Phosphorylation of histones and uses thereof” (H. LEE MOFFITT CANCER CENTER AND RESEARCH INSTITUTE, priority 2012, dated 2017)
# How the values were obtained:
# WEE1 [1] = molecular target: T1, WEE1 (Homo sapiens, UniProt P30291); test: pTyr37-H2B immunoprecipitation/immunoblot in synchronized H1975 cells; assay type: cell-based; design: endogenous in cells; host or cells: H1975; settings: 6.30 hours post-release, 0.3 μM
# Description: (§1) FIG. 13A is an immunoblot showing lysates from synchronized MEFs immunoprecipitated with pTyr37-H2B antibodies followed by immunoblotting with pTyr37-H2B antibody (top panel) or H2B antibody (bottom panel). FIG. 13B is an immunoblot showing cell lysates 6.30 hours post-release from H1975 cells synchronized by double thymidine alone (first column) or with 0.31 μM (second column), 0.62 μM (third column) and 1.25 μM (fourth column) MK1775 WEE1 inhibitor that were immunoprecipitated with pTyr37-H2B antibodies followed by immunoblotting with pTyr37-H2B, H2B, pTyr15-Cdc2, or Cdc2 antibodies. FIG. 13C is an immunoblot showing lysates collected at 0 and 6.30 hours post-release from synchronized MEFs transfected with control (first two columns) or WEE1 (last two columns) siRNAs that were immunoprecipitated with pTyr37-H2B antibodies followed by immunoblotting with pTyr37-H2B (top panel), H2B (second panel), WEE1 (third panel), or PTyr15-Cdc2 (bottom panel) antibodies. FIG. 13D is an immunoblot showing equimolar amounts of purified WEE1 (last three columns) and H2B (first three columns) proteins incubated in the presence (third column) or absence of WEE1 inhibitor (MK1775, 0.625 μM) for 1 hour at 30° C. and immunoblotted with pTyr37-H2B (top panel), H2B (middle panel), and WEE1 (bottom panel) antibodies. […]
# WEE1 [2] = molecular target: T1, WEE1; test: In vitro kinase assay, purified WEE1 and H2B; assay type: biochemical; design: GST; purchased Invitrogen; settings: MK1775 0.625 μM, 1 hour at 30° C.
# Description: as §1
# [3] = test system: core histone genes located in Hist1 cluster; test: qRT-PCR of histone genes (8-histone gene signature) in synchronized cells; assay type: cell-based; settings: MK1775 0.6 uM, 14 hr, 8.30 hours post-release
# Description: FIG. 33a-33h show a 8-histone gene signature. a-h, Synchronized cells treated with WEE1 inhibitor, MK1775 (0.6 uM, 14 hr) were harvested at indicated time points post-release. Total RNA was prepared followed by quantitative RT-PCR for 8 histone genes.
# Human cells have 55 distinct histone genes each encoding a fraction of core histones. This study determined histone levels using 20 of these genes. In untreated cells, rapid decrease in transcripts of all of these histone genes was observed when RNA levels of 6.30 hours post-release samples (late S phase) were compared with 8.30 hours post-release (G2/M phase) samples (FIGS. 33a-33h).
# Based on extensive transcriptional profiling of 20 histone genes, this study identified 8 genes (H2Bm, H2bn, H2Bl, H3 h, H4j, H2Ai, H2Ak and H2Bk) as being representative of global histone transcriptional output, termed as the 8-histone gene signature.
# [4] = test system: WEE1 expressing cancer cell lines; settings: cited from earlier work
# T1 sequence (P30291 whole entry): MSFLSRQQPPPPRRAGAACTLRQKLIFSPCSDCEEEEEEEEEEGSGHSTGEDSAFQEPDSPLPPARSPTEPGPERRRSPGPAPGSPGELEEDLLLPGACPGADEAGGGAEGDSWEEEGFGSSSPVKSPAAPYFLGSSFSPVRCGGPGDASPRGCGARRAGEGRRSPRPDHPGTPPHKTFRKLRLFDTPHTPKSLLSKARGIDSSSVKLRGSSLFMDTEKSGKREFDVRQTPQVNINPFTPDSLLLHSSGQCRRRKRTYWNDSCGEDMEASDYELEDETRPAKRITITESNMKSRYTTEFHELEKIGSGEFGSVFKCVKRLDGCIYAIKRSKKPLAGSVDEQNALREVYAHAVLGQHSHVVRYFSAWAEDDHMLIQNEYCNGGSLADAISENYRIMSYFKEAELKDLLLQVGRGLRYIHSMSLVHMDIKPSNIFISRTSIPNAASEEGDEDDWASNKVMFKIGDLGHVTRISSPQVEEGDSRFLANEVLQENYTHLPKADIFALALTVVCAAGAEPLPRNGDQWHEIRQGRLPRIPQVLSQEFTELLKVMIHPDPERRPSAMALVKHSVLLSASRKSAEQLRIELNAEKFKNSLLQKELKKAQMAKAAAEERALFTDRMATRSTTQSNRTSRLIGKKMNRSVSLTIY
compound,measurement,setting,value
C=CCn1c(=O)c2cnc(Nc3ccc(N4CCN(C)CC4)cc3)nc2n1-c1cccc(C(C)(C)O)n1 [MK-1775],pTyr37-phosphorylation of H2B,WEE1 [1],complete loss
same,H2B pTyr37-phosphorylation by purified WEE1,WEE1 [2],abrogated
same,histone mRNA levels,[3],did not decrease
same,apoptosis,[4],selectively induces apoptosis
